The text below walks through data of patent US6933272B1 (priority 1998, dated 2005).

Like-named read-outs stand apart in the source and are kept apart here.

Test [1] concerns the target T1, insulin receptor (Homo sapiens, UniProt P06213). Description: 125I insulin binding to CHO.T11 cells. Also on record: expressed in transfected cells. The procedure:
(§1) Tubes were mixed and incubated for 16 h at 4° C. After the incubation, the tubes were placed on ice and 300 μL of a 1:5 suspension of 0.4% bovine-γ-globulin in 20% polyethyleneglycol 6000 (BDH chemicals) was added to each tube, mixed thoroughly and left to incubate for 30 min on ice. The tubes were then centrifuged (3,000 g) for 30 min at 4° C., the supernatant was aspirated off and the pellet counted for radioactivity. […] Inhibition constants were estimated by graphical analysis of displacement plots or calculated using the curve fitting programs EBDA and/or LIGAND.
Target sequence in this assay (P06213 28-758 limits assumed): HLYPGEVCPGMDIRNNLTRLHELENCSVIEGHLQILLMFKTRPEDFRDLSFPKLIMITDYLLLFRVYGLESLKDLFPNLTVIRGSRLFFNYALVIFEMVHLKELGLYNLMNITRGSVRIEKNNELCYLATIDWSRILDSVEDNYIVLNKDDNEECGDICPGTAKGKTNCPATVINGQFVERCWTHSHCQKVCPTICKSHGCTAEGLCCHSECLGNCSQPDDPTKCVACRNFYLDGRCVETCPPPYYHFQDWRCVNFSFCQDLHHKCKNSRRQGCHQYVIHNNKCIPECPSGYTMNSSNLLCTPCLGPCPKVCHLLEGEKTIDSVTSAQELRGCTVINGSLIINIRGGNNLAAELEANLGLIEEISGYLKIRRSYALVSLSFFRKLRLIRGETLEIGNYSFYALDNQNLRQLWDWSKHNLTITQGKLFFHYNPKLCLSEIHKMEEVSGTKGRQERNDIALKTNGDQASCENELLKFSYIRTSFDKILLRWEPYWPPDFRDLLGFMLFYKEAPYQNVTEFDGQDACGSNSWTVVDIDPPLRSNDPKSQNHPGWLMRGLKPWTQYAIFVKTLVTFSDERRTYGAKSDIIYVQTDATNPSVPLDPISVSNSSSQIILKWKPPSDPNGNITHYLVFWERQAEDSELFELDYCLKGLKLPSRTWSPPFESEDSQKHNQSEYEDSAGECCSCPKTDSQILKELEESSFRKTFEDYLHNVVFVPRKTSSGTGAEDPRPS

The next test deals with 3T3L1 adipocyte cells. Nature of the test: Glucose transport (3H-deoxyglucose uptake) in 3T3L1 adipocyte cells. The test is classed as cell-based, mouse. The procedure: Glucose transport was determined using a modification of the method of S. J. Isakoff et at. (23). The assay involved measuring the effect of compounds on the uptake of ^3H-deoxyglucose into 3T3L1 adipocyte cells.
The cell line, 3T3-L1, derived from mouse embryo fibroblasts, was grown in 250 mL tissue culture flasks containing 15 mL medium made up of DMEM (Dulbecco's modified Eagle's medium containing glutamine, 2 mM; sodium bicarbonate, 30 mM; penicillin 71.5 mg/litre; streptomycin, 152.5 mg/litre) supplemented with 10% foetal calf serum (FCS), pH 7.4. Cells were maintained in a humidified incubator at 37° C. in a 5% CO2 environment. The medium was changed every 3 days and the cells were split when they were about 70-80% confluent.
3T3-L1 fibroblast cells from one tissue culture flask were suspended in 50 mL of DMEM media containing 10% FCS and 0.5 mL of this suspension were seeded into each well of two 48-well tissue culture plates. The differentiation of the cells was initiated when the fibroblast cells were fully confluent. Routinely, differentiation was induced on cells that had been growing in tissue culture plates for 4-5 days. […] The cells were subsequently maintained with DMEM medium containing 10% FCS.
One day prior to the glucose transport assay, cell medium was replaced with DMEM containing 10% charcoal-treated foetal calf serum (CTFCS). On the day of the assay, the medium was aspirated and each well was washed with 1 mL of 25 mM Hepes, pH 7.4 containing 0.9% NaCl (NaCl-HEPES). […] Ten microlitres of NaCl-HEPES containing 3 mM 2-deoxy-D-glucose and 0.1 μCi 2-deoxy-D-[1-^3H]glucose were then added. Following a 10 min incubation at 37° C., the medium was aspirated off and the wells rapidly washed three times with 1 mL of ice-cold 50 mM phosphate, pH 7.5 containing 150 mM NaCl (PBS) and 10 mM glucose. Two hundred microlitres of 3% Triton X-100 was then added to each well and left to incubate for a minimum of 10 minutes. One hundred microlitres of the solubilised cells was then added to 2.5 mL of liquid scintillation fluid and counted for radioactivity in a Beckman β-counter.

Test [2] addresses T1, insulin receptor. Description: Assays of insulin action (several biological assays, classification agonist/antagonist).
Target sequence in this assay (P06213 with tags, fused parts or gaps): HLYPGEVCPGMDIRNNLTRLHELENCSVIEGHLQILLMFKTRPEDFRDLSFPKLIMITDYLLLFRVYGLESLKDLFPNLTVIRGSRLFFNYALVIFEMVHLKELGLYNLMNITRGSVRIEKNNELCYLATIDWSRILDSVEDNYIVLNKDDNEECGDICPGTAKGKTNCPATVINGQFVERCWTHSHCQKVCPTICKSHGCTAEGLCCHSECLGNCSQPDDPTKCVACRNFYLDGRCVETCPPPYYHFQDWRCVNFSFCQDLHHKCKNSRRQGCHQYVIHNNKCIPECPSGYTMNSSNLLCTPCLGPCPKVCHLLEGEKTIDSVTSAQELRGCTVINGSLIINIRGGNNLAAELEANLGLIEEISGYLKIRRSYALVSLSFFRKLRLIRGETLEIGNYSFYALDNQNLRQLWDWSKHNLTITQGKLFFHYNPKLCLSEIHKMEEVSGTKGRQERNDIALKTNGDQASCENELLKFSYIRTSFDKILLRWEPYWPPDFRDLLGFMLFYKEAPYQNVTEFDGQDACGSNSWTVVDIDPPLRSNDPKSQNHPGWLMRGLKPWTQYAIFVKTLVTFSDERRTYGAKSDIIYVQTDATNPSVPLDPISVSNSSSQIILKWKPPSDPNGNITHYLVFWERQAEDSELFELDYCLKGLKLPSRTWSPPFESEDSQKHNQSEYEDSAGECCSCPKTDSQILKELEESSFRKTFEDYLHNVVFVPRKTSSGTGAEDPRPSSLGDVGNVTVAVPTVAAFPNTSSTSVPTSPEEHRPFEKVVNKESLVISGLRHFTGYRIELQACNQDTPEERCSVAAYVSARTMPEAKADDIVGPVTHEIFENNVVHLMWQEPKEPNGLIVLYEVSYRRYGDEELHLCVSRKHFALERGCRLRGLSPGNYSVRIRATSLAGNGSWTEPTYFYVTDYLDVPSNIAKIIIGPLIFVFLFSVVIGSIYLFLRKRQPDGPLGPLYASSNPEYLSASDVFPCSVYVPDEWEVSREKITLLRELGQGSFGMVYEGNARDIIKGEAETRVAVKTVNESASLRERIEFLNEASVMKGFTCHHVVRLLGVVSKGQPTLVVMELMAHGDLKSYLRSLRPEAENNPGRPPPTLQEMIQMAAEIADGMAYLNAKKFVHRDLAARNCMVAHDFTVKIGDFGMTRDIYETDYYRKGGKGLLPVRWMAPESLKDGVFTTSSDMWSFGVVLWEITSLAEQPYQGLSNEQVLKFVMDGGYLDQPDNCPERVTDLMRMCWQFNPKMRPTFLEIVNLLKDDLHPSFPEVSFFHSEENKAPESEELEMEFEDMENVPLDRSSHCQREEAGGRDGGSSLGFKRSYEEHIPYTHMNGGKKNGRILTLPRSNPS
In test [3] the target is T1, insulin receptor. Description: 125I insulin binding to wheat germ agglutinin purified insulin receptors (WGA.IR). Conditions: LIGAND 1-site fit. Also on record: host or cells: several: placental membranes, CHO.T11 cells, WGA purified receptors. How it is done:
as §1
Target sequence in this assay (P06213 28-758 limits assumed): as the sequence (P06213 28-758 limits assumed) above

The target in test [4] is T1, insulin receptor. Nature of the test: 125I insulin binding, insulin receptors from a number of sources. Set-up: host or cells: several: placental membranes, CHO.T11 cells, WGA purified receptors. The settings on record: range over receptor sources. The procedure: as §1
Target sequence in this assay (P06213 28-758 limits assumed): as above
Test [5] concerns the target insulin receptor β-subunit associated tyrosine kinase activity (Homo sapiens, UniProt P06213). Nature of the test: Protein tyrosine kinase (PTK) assay, 32P incorporation into FYF peptide. Type of test: biochemical. The settings on record: for effect of compound alone on 32P incorporation into FYF peptide: basal, absence of insulin; for Ki: read-out: estimated inhibition constant, PTK assay. The procedure:
Protein tyrosine kinase activity was determined using a modification of the method of N. Konstantopoulos (22).
The reaction was allowed to proceed for 20 minutes at 30° C. before it was terminated by the addition of 12.5 μL of 7.5 M guanidine hydrochloride. An aliquot (10 μL) of the reaction mixture was then spotted onto a Whatman 81 phosphocellulose paper (15 mm×15 mm), washed three times (2 min per wash) in about 50 mL of 30% acetic acid, 0.05% orthophosphoric acid then finally, with one wash in about 200 mL of water. The papers were then rinsed briefly (15 sec) in 95% ethanol, dried, suspended in 2.5 mL of scintillation fluid (Beckman) and counted for radioactivity in a Beckman β-counter.

The next test deals with IGF-1 receptor (Homo sapiens, UniProt P08069). Description: 125I IGF-1 binding to human placental plasma membranes (HPPM). Also on record: from tissue; host or cells: human placenta, plasma membranes. The settings on record: HPPM; read-out: Ki, competition for 125I IGF-1 binding.
Test [6] concerns the target T1, insulin receptor. Nature of the test: 125I insulin binding to human placental plasma membranes (HPPM). Set-up: Human Placental Plasma Membranes—50 mM Hepes, pH 7.8 @ 4 C containing 100 U/mL Bacitracin; from tissue; host or cells: human placenta, plasma membranes. The procedure:
as §1
Target sequence in this assay (P06213 28-758 limits assumed): as above

[7] abbreviates: Mus musculus, 3T3-L1; read-out: estimated IC50, glucose transport.
[8] abbreviates: read-out: estimated IC50, 32P incorporation into FYF peptide.
The mark [9] stands for this setting: human placental plasma membranes, 16 h at 4° C.
[10] abbreviates: 3T3L1 cells, 2 nM insulin; read-out: estimated inhibition constant (Ki), glucose transport assay.

Chain of insulin receptor β-subunit associated tyrosine kinase activity (P06213 28-758 limits assumed): as above
Chain of IGF-1 receptor (P08069 31-736 limits assumed): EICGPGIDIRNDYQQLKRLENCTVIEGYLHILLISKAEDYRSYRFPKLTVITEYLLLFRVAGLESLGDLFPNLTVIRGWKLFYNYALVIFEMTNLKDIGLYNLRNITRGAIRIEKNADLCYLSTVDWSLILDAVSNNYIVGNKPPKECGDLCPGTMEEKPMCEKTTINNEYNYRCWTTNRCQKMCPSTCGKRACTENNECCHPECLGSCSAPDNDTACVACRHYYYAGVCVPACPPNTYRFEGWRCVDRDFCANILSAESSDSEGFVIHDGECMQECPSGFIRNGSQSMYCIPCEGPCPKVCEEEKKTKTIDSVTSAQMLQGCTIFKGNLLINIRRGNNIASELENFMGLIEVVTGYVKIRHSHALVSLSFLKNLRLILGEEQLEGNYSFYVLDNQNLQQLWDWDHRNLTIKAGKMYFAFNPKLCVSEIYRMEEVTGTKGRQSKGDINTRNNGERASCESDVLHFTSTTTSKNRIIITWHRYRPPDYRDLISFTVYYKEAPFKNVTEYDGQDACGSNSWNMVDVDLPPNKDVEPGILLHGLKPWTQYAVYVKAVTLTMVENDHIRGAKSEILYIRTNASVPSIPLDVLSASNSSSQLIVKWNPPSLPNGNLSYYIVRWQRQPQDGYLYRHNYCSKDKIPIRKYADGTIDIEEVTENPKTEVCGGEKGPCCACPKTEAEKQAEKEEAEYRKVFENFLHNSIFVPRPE

For the compound `O=C(O)c1cc2ccccc2c(Cc2c(O)c(C(=O)O)cc3ccccc23)c1O` [IM 025, 4,4′-Methylenebis[3-hydroxy-2-naphthalenecarboxylic acid]], the figures for the Ki on insulin receptor [1], on insulin receptor [3] and on insulin receptor [4] were 137 to 337 µM, 108 ± 32 µM and 100 to 400 µM, respectively. The IC50 was 170 µM in the test on 3T3L1 adipocyte cells (setting [7]) and 150 µM in test [5] (setting [8]). The “classification of insulin action” value on insulin receptor [2] is “antagonists of insulin action”.

As for `CCCc1c(OCCCOc2cc(O)c(C(C)=O)cc2CC)ccc2c1OC(C(=O)O)CC2` (stereo not shown) [IM 071, 7-[3-(4-acetyl-2-ethyl-5-hydroxyphenoxy)propoxy]-3,4-dihydro-8-propyl-2H-1-benzopyran-2-carboxylic acid], the “classification of insulin action” value on insulin receptor [2] is on record as “antagonists of insulin action”.

What is called EC50 is the concentration giving half of the maximal effect. Take `O=S(=O)(NS(=O)(=O)C(F)(F)F)c1cc(Cl)cc(Cl)c1OS(=O)(=O)c1cc(Cl)cc(Cl)c1O` [IM 103, 2,4-dichloro-6-(N-(trifluoromethanesulfonyl))sulfamoylphenyl 3,5-dichloro-2-hydroxybenzenesulfonate]: the Ki on IGF-1 receptor was determined as 59 µM; on insulin receptor [1] it was 132 ± 29 µM; at insulin receptor [6] (setting [9]), 137 ± 45 µM; on insulin receptor [3], 83 µM. In addition, in the test on 3T3L1 adipocyte cells (Mus musculus, 3T3-L1; compound alone; read-out: apparent EC50, stimulation of glucose transport), the EC50 was 45 ± 7 µM. Besides, in the test on 3T3L1 adipocyte cells (compound alone, relative to maximal dose of insulin (100 nM)), the “efficacy compared with insulin, glucose transport” value is “about 15%”. Further, the “concentration at apex of bi-phasic dose response curve” value with 3T3L1 adipocyte cells (glucose transport) was 110 µM. In addition, in the test with 3T3L1 adipocyte cells (in presence of insulin (2 nM)), the “effect on insulin stimulated glucose transport” value was “abolishes the insulin stimulation of glucose transport in a dose dependent manner”. The “classification of insulin action” value on insulin receptor [2] is reported as “agonists of insulin action”.

For the compound `CCCc1c(COc2ccc3c(=O)cc(C(=O)O)oc3c2CCC)ccc(C(C)=O)c1O` [IM 127, 7-[(4-acetyl-3-hydroxy-2-propylphenyl)methoxy]-4-oxo-8-propyl-4H-1-benzopyran-2-carboxylic acid], the values for the Ki on insulin receptor [6] (setting [9]), in the test with 3T3L1 adipocyte cells (setting [10]) and on insulin receptor [3] were 140 to 320 µM, 60 µM and 295 µM, respectively. Further, at insulin receptor [2], the “classification of insulin action” value is given as “antagonists of insulin action”.

With `CCCc1c(OCCCOc2cc(O)c(-c3cc[nH]n3)cc2CC)ccc2c1OC(C(=O)O)CC2` (stereo not shown) [IM 132, 3,4-dihydro-8-propyl-7-[[3-[2-ethyl-5-hydroxy-4-(1H-pyrazol-3-yl)phenoxy]propyl]oxy]-2H-1-benzopyran-2-carboxylic acid], the results for the Ki (in the test on 3T3L1 adipocyte cells (setting [10]); at insulin receptor [4]; in test [5]) were 64 µM, 200 to 450 µM and 360 µM, respectively. Besides, the “effect of compound alone on glucose transport” value (“effect … on glucose transport” for short) in the test with 3T3L1 adipocyte cells (basal, no insulin) is “does not increase ^32P incorporation into FYF peptide or activate glucose transport”. Besides, the “effect on insulin stimulated glucose transport” value with 3T3L1 adipocyte cells (in presence of insulin (2 nM)) is listed as “significant synergism with insulin”. Besides, the “classification of insulin action” value on insulin receptor [2] was “antagonists of insulin action”. In addition, in test [5], the “effect of compound alone on 32P incorporation into FYF peptide” value is on record as “does not increase ^32P incorporation into FYF peptide”.

On to `CCCc1c(OCCCOc2cc(O)c(OCC)cc2CC)ccc2c1OC(C(=O)O)CC2` (stereo not shown) [IM 134, 3,4-dihydro-8-propyl-7-[[3-[2-ethyl-5-hydroxy-4-ethoxyphenoxy]propyl]oxy]-2H-1-benzopyran-2-carboxylic acid], for which the figures for the Ki (at insulin receptor [6] (setting [9]); in the test with 3T3L1 adipocyte cells (setting [10]); in test [5]) were 900 µM, 60 to 110 µM and 300 to 400 µM, respectively. Besides, the “effect … on glucose transport” value with 3T3L1 adipocyte cells (basal, no insulin) is reported as “does not increase ^32P incorporation into FYF peptide or glucose transport”. Moreover, the “classification of insulin action” value at insulin receptor [2] is “antagonists of insulin action”. The “effect of compound alone on 32P incorporation into FYF peptide” value in test [5] is “does not increase ^32P incorporation into FYF peptide”.

For the compound `CCCc1c(OCc2ccc3ccccc3n2)ccc2c1OC(C(=O)O)CC2` (stereo not shown) [IM 143, 8-propyl-7-(quinol-2′-ylmethoxy)-3,4-dihydro-2H-1-benzopyran-2-carboxylic acid], the values for the Ki on insulin receptor [6] (human placental plasma membranes) and with 3T3L1 adipocyte cells (setting [10]) were roughly 2000 µM and 40 µM, respectively. Further, the “effect … on glucose transport” value in the test with 3T3L1 adipocyte cells (basal, no insulin) is “does not stimulate glucose transport activity”. Also, at insulin receptor [2], the “classification of insulin action” value is recorded as “antagonists of insulin action”.

Turning to `CCCc1c(OCc2ccc3ccccc3c2)ccc2c1OC(C(=O)O)CC2` (stereo not shown) [IM 144, 7-(naphth-2′-ylmethoxy)-8-propyl-3,4-dihydro-2H-1-benzopyran-2-carboxylic acid], the Ki at insulin receptor [6] (setting [9]) was 900 µM; with 3T3L1 adipocyte cells (setting [10]), 125 µM; in test [5] it was 130 µM. For the same compound, the “effect … on glucose transport” value in the test on 3T3L1 adipocyte cells (basal, no insulin) is on record as “does not increase ^32P incorporation into FYF peptide or activate glucose transport”. In addition, at insulin receptor [2], the “classification of insulin action” value is listed as “antagonists of insulin action”. Also, the “effect of compound alone on 32P incorporation into FYF peptide” value in test [5] is recorded as “does not increase ^32P incorporation into FYF peptide”.

Regarding `CCCN(CCC)c1c([N+](=O)[O-])cc(S(=O)(=O)NS(=O)(=O)C(F)(F)F)cc1[N+](=O)[O-]` [IM 145, N-(trifluoromethanesulfonyl)-3,5-dinitro-4-(N′,N′-dipropylamino)benzenesulfonamide], the Ki at insulin receptor [6] was roughly 1000 µM. Also, the IC50 in the test with 3T3L1 adipocyte cells (Mus musculus, 3T3-L1, read-out: estimated IC50, glucose transport) was 60 µM. Further, in the test with 3T3L1 adipocyte cells (basal, no insulin), the “effect … on glucose transport” value was “does not stimulate PTK or glucose transport activity”. The “classification of insulin action” value at insulin receptor [2] is recorded as “antagonists of insulin action”. Also, in test [5], the IC50 was 90 µM and the “effect of compound alone on 32P incorporation into FYF peptide” value is reported as “does not stimulate PTK”.

`CCCc1c(OCCCOc2cc(O)c(-c3ccc(F)cc3)cc2CC)ccc2c1OC(C(=O)O)CC2` (stereo not shown) [IM 171, 8-propyl-7-[3-[4-(4-fluorophenyl)-2-ethyl-5-hydroxyphenoxy]propoxy]-3,4-dihydro-2H-1-benzopyran-2-carboxylic acid] returned a Ki at insulin receptor [6] (setting [9]) of 370 µM. Further, the IC50 with 3T3L1 adipocyte cells (setting [7]) was 80 µM; in test [5] (setting [8]) it was 250 µM. Besides, the “effect … on glucose transport” value in the test on 3T3L1 adipocyte cells (basal, no insulin) is recorded as “does not increase ^32P incorporation into FYF peptide or activate glucose transport”. At insulin receptor [2], the “classification of insulin action” value was “antagonists of insulin action”. For the same compound, the “effect of compound alone on 32P incorporation into FYF peptide” value in test [5] is reported as “does not increase ^32P incorporation into FYF peptide”.
